Test results reported in patent US7915022B2, “Carbonyl reductase, gene thereof and method of using the same” (priority 2004, dated 2011).

Assays:
[1] = test system: polypeptide consisting of the amino acid sequence shown in SEQ ID NO: 3 (carbonyl reductase), cell-free extract of E. coli HB101 (pNTOM3); experiment: Substrate specificity of polypeptide produced by transformant E. coli HB101 (pNTOM3); format: biochemical, Ogataea minuta var. minuta NBRC0975; conditions: 1 mM substrate, 0.25 mM NADPH, pH 6.5, 30° C., 1 min; relative to activity on CBPB as 100%
Description: (§1) In 100 mM phosphate buffer (pH 6.5) containing 0.33% (v/v) dimethyl sulfoxide were dissolved a carbonyl compound to be a substrate to a final concentration of 1 mM, and a coenzyme NADPH to a final concentration of 0.25 mM, respectively. Thereto was added a cell-free extract of E. coli HB101 (pNTOM4) or E. coli HB101 (pNTOM3) prepared in Example 7, and the mixture was reacted at 30° C. for 1 min. The reduction activity on each carbonyl compound was calculated from the rate of decrease in the absorbance of the reaction mixture at a wavelength of 340 nm, and shown in Table 2 as a value relative to the activity on (3S)-1-chloro-3-tert-butoxycarbonylamino-4-phenyl-2-butanone as 100%.

[2] = test system: polypeptide consisting of the amino acid sequence shown in SEQ ID NO: 4 (carbonyl reductase), cell-free extract of E. coli HB101 (pNTOM4); experiment: Substrate specificity of polypeptide produced by transformant E. coli HB101 (pNTOM4); format: biochemical, Ogataea minuta var. minuta NBRC0975; conditions: 1 mM substrate, 0.25 mM NADPH, pH 6.5, 30° C., 1 min; relative to activity on CBPB as 100%
Description: as §1

SMILES	relative activity (%) E. coli HB101 (pNTOM3) [1] [%]	relative activity (%) E. coli HB101 (pNTOM4) [2] [%]
O=C(CO)c1ccccc1 [2-hydroxyacetophenone]	32	1
CC(=O)c1ccccn1 [2-acetylpyridine]	29	0
CCOC(=O)CC(=O)c1ccccc1 [ethyl benzoylacetate]	1233	0
CCCCCC=O [n-hexylaldehyde]	265	3
CC(=O)c1cnccn1 [acetylpyrazine]	185	0
O=Cc1ccc(Cl)cc1 [p-chlorobenzaldehyde]	91	12
CCOC(=O)CC(C)=O [ethyl acetoacetate]	137	0
O=CCCCC=O [glutaraldehyde]	80	1
O=C1CCCc2ccccc21 [1-tetoralone]	146	1
COc1ccc2c(c1)CC(=O)CC2 [7-methoxy-2-tetoralone]	599	6
CC(=O)C(C)=O [diacetyl]	444	5
O=Cc1cccc(Cl)c1 [m-chlorobenzaldehyde]	344	17
CCOC(=O)C(C)=O [ethyl pyruvate]	1067	23
C=CC(C(C)=O)C(=O)OCC (stereo not drawn) [ethyl 2-eteneacetoacetate]	2013	10
CCOC(=O)CC(=O)COC(C)=O [ethyl 4-acetoxyacetoacetate]	465	1
CCCCC(C)=O [2-hexanone]	11	0
CC(C)(C)OC(=O)N[C@@H](Cc1ccccc1)C(=O)CCl [CBPB, (3S)-1-chloro-3-tert-butoxycarbonylamino-4-phenyl-2-butanone]	100	100
O=C(CCl)c1cccc(Cl)c1 [2-chloro-1-(3′-chlorophenyl)ethanone]	1301	33
CC(=O)CC(=O)OCc1ccccc1 [benzyl acetoacetate]	883	4
COC(=O)C(C)=O [methyl pyruvate]	674	5
CC(=O)CC(C)=O [acetylacetone]	23	0
CCC(C)=O [2-butanone]	22	0
CC(=O)c1ccncc1 [4-acetylpyridine]	98	0
CC(C)=O [acetone]	47	0
CCOC(=O)C(C)C(C)=O (stereo not drawn) [ethyl 2-methylacetoacetate]	619	4
CCOC(=O)C(Cl)C(=O)c1ccccc1 (stereo not drawn) [ethyl 2-chloro-3-oxo-3-phenylpropionate]	716	5
CCOC(=O)CC(=O)CBr [ethyl 4-bromoacetoacetate]	476	7

SMILES	relative activity (%) E. coli HB101 (pNTOM3) [1] [%]	relative activity (%) E. coli HB101 (pNTOM4) [2] [%]
CCOC(=O)CC(=O)COCc1ccccc1 [ethyl 4-benzyloxyacetoacetate]	1259	8
CC(=O)c1cccc([N+](=O)[O-])c1 [3′-nitroacetophenone]	273	31
CC(=O)c1ccc(Cl)cc1 [4′-chloroacetophenone]	35	9
O=CCCc1ccccc1 [3-phenylpropionaldehyde]	2410	7
O=Cc1ccccc1 [benzaldehyde]	81	1
CCCCCCCCC(=O)C(=O)OCC [ethyl 2-oxodecanoate]	985	5
CCOC(=O)C1CCC(=O)C1 (stereo not drawn) [ethyl 3-oxocyclopentanecarboxylate]	484	12
CCC(=O)Cc1ccccc1 [1-phenyl-2-butanone]	285	2
CCCCCCCCOC(=O)CC(=O)CCl [n-octyl 4-chloroacetoacetate]	466	24
CC(=O)c1cccc(O)c1 [3′-hydroxyacetophenone]	33	0
CCC(=O)c1ccccc1 [propiophenone]	183	2
CC(=O)c1ccc(C)cc1 [4′-methylacetophenone]	41	1
O=Cc1ccncc1 [pyridine-4-aldehyde]	571	2
O=Cc1ccc([N+](=O)[O-])cc1 [p-nitrobenzaldehyde]	1166	21
COC(=O)CC(C)=O [methyl acetoacetate]	8	0
O=C1CCCC1 [cyclopentanone]	8	0
O=Cc1ccccn1 [2-pyridinecarbaldehyde]	56	1
CCCCCCC(C)=O [2-octanone]	808	3
CCOC(=O)C(=O)c1ccccc1 [ethyl benzoylformate]	296	20
CC(C=O)c1ccccc1 (stereo not drawn) [2-phenylpropionaldehyde]	479	3
O=C(c1ccccc1)C(O)c1ccccc1 (stereo not drawn) [benzoin]	4018	5
CC(=O)CO [hydroxyacetone]	51	0
CCCCCC(C)=O [2-heptanone]	102	0
CCOC(=O)C(=O)CCc1ccccc1 [ethyl 2-oxo-4-phenylbutyrate]	127	106
CC(=O)c1ccc(F)cc1 [4′-fluoroacetophenone]	28	1
CCC=O [propionaldehyde]	99	0
O=Cc1ccccc1Cl [o-chlorobenzaldehyde]	269	17
